# Results taken from publication PMC12442245, “Activity Analysis of the P2X Receptor Antagonist PPADS against Signal Transducer and Activator of Transcription Proteins” (Chembiochem, 2025).
# Biological target: T1, STAT4 (Homo sapiens, UniProt Q14765)
# T1 sequence (Q14765 1-748): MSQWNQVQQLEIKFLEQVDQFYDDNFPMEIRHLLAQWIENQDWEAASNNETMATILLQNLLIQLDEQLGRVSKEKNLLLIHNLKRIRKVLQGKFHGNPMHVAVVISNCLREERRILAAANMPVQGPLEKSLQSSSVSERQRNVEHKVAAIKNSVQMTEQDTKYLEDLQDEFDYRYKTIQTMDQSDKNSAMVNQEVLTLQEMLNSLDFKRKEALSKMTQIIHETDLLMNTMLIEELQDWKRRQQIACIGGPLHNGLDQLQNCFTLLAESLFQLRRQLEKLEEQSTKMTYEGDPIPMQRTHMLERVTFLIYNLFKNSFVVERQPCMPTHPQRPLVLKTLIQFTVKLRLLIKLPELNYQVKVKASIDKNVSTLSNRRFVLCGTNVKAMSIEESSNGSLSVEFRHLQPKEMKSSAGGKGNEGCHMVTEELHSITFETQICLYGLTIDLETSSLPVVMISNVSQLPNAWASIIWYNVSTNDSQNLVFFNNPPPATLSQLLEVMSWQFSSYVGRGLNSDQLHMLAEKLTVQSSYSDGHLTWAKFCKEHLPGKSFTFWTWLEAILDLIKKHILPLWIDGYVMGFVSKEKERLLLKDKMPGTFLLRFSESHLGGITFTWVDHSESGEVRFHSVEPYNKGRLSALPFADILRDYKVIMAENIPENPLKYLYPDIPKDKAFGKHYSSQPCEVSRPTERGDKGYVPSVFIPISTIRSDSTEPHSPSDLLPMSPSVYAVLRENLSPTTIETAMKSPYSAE
# Assay: HTRF assay, STAT4
# Format: binding
# Details: STAT4 30 nM, without reducing agent, 1 h
# From the text: The azo dyes PPADS and iso‐PPADS have a deep red color in aqueous solution. […] In order to exclude this possibility, we established homogeneous time‐resolved fluorescence resonance energy transfer (HTRF) assays to confirm the degree of binding between STAT4, STAT5a, and STAT5b and the respective 5‐carboxyfluorescein‐labeled binding peptides used in the FP assay. In addition, an HTRF assay was established for STAT3, one of the STAT proteins targeted to a lesser extent in FP assays, as a specificity control (Figure 1B,C). The STAT protein constructs each contain a 6x‐His‐tag.^[ [15], [16], [17], [22] ^] A Tb^3+‐cryptate fused to an anti‐6x‐His antibody was chosen as the long‐lived fluorescent donor, while the carboxyfluorescein linked to the respective STAT‐binding peptides served as the acceptor (Figure 2A). Emission was measured with a time delay of 60 μs after excitation, allowing any initial compound fluorescence to decay beforehand. […]
# Screening of chemical libraries comprising approximately 5000 known bioactive compounds in fluorescence polarization-based assays against phosphorylation-dependent protein-protein interaction domains, including STAT proteins, has been described.[1] […]
# Fluorescence polarization assays
# Competitive fluorescence polarization (FP) assays for STAT1,[2] […] Briefly, peptide binding to proteins was analyzed using the following carboxyfluorescein (CF) -labelled pepti des at a concentration of 10 nM: STAT1: 5-CF-GpYDKPHVL-OH, STAT3: 5-CF-GpYLPQTV -NH2, STAT4: 5-CF-GpYLPQNID-OH, STAT5a and STAT5b: 5-CF-GpYLVLDKW-OH, STAT6: 5- […]
# CFGp[…]-OH. […] FP was measured using an Infinite F500 plate reader (Tecan) and measurements were converted into percent inhibition according to the binding curve equation. Curves were plotted and best fits calculated using OriginPro […]
# Homogenous time-resolved fluorescence (HTRF) assays for STAT3, STAT4, STAT5a and STAT5b were carried out using Cisbio Monoclonal Antibody Anti-6His-Tb Gold as the fluorescence donor (Perkin Elmer) and the corresponding CF-labelled binding peptide as the acceptor. […] The average reading from 3 wells was obtained. […]
row,Structure (SMILES),IC50 [µM]
1,"Cc1nc(/N=N/c2ccc(S(=O)(=O)O)cc2S(=O)(=O)O)c(COP(=O)(O)O)c(C=O)c1O [PPADS, pyridoxalphosphate‐6‐azophenyl‐2',4'‐disulfonic acid]",2.92 ± 0.36
2,Cc1nc(/N=N/c2cc(S(=O)(=O)O)ccc2S(=O)(=O)O)c(COP(=O)(O)O)c(C=O)c1O [iso‐PPADS],8.6 ± 1.3
